Measurements published in ChEMBL document CHEMBL2074456, “Estrone and 17beta-estradiol reverse breast cancer resistance protein-mediated multidrug resistance” (Jpn J Cancer Res, 2002).

How the values were obtained:
[1] = target: T1, Broad substrate specificity ATP-binding cassette transporter ABCG2 (Homo sapiens, UniProt Q9UNQ0); test: TP_TRANSPORTER: inhibition of Topotecan efflux (Topotecan: 20 uM, beta-Estradiol: 100 uM) in BCRP-expressing K562 cells: flow cytometric analysis; assay type: functional, cell-based; conditions: k562, 100 µM
T1 sequence (Q9UNQ0 whole entry): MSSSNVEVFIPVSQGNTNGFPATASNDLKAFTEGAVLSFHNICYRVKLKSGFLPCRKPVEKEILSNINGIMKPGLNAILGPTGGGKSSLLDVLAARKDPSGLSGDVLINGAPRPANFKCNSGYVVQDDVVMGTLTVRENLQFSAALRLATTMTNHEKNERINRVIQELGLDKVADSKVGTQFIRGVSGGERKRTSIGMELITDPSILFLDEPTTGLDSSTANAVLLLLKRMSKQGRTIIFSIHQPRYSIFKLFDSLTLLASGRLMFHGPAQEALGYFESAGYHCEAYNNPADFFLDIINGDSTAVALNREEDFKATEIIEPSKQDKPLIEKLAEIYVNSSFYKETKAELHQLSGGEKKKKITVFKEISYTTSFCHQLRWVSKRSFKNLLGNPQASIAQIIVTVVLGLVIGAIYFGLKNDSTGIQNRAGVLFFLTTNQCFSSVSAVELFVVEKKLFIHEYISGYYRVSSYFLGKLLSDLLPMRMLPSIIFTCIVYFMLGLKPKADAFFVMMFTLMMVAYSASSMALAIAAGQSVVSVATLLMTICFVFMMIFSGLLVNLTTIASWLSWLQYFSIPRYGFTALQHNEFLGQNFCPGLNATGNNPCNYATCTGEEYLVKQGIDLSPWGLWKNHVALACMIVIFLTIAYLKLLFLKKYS

[2] = target: T1, Broad substrate specificity ATP-binding cassette transporter ABCG2; test: TP_TRANSPORTER: inhibition of Topotecan efflux (Topotecan: 20 uM, Estrone: 100 uM) in BCRP-expressing K562 cells: flow cytometric analysis; assay type: functional, cell-based; conditions: k562, 100 µM

Activity [1] | Activity [2] | SMILES
inhibitor [+] | – | C[C@]12CC[C@@H]3c4ccc(O)cc4CC[C@H]3[C@@H]1CC[C@@H]2O [ESTRADIOL]
– | inhibitor [+] | C[C@]12CC[C@@H]3c4ccc(O)cc4CC[C@H]3[C@@H]1CCC2=O [ESTRONE]
